Marks after values point to notes of the source that are not given here.
What was measured:
Assay type in all cases: in vivo
Amaranthus retroflexus [1] = assay: greenhouse post-emergence treatment, AMARE; details: scale 0-100
Description: (§1) The culture containers used were plastic flowerpots containing loamy sand with approximately 3.0% of humus as the substrate. The seeds of the test plants were sown separately for each species.
(§2) For the post-emergence treatment, the test plants were first grown to a height of 3 to 15 cm, depending on the plant habit, and only then treated with the active ingredients which had been suspended or emulsified in water. For this purpose, the test plants were either sown directly and grown in the same containers, or they were first grown separately as seedlings and transplanted into the test containers a few days prior to treatment.
(§3) Depending on the species, the plants were kept at 10-25° C. or 20-35° C. The test period extended over 2 to 4 weeks. During this time, the plants were tended, and their response to the individual treatments was evaluated.
(§4) Evaluation was carried out using a scale from 0 to 100. 100 means no emergence of the plants, or complete destruction of at least the aerial moieties, and 0 means no damage, or normal course of growth. A good herbicidal activity is given at values of at least 70 and a very good herbicidal activity is given at values of at least 85.
(§5) The plants used in the greenhouse experiments belonged to the following species:
(§6) Following representative compounds of formula I according to Table 9 were used in post-emergence treatments in greenhouse experiments (values labeled with * result from pre-emergence experiments): […]

Chenopodium album = assay: greenhouse post-emergence treatment, CHEAL; details: scale 0-100
Description: as §1, §2, §3, §4, §5, §6

Polygonum convolvulus = assay: greenhouse post-emergence treatment, POLCO; details: scale 0-100
Description: as §1, §2, §3, §4, §5, §6

Abutilon theophrasti [2] = assay: greenhouse pre-emergence treatment, ABUTH; details: pre-emergence (value labeled *), scale 0-100
Description: as §1
(§7) For the pre-emergence treatment, the active ingredients, which had been suspended or emulsified in water, were applied directly after sowing by means of finely distributing nozzles. The containers were irrigated gently to promote germination and growth and subsequently covered with transparent plastic hoods until the plants had rooted. This cover caused uniform germination of the test plants, unless this has been impaired by the active ingredients.
as §3, §4, §5, §6

Abutilon theophrasti [3] = assay: greenhouse post-emergence treatment, ABUTH; details: 1000 g/ha, scale 0-100
Description: as §1, §2, §3, §4
(§8) The plants used in the greenhouse experiments belonged to the following species: […]

Echinochloa crus-galli [4] = assay: greenhouse post-emergence treatment, ECHCG; details: scale 0-100
Description: as §1, §2, §3, §4, §5, §6

Echinochloa crus-galli [5] = assay: greenhouse pre-emergence treatment, ECHCG; details: pre-emergence (value labeled *), scale 0-100
Description: as §1, §7, §3, §4, §8

Amaranthus retroflexus [6] = assay: greenhouse pre-emergence treatment, AMARE; details: pre-emergence (value labeled *), scale 0-100
Description: as §1, §7, §3, §4, §5, §6

Agrostis spica-venti = assay: greenhouse pre-emergence treatment, APESV; details: pre-emergence (value labeled *), 250 g/ha; scale 0-100
Description: as §1, §7, §3, §4, §5, §6

Row | SMILES | [%] damage to weed III (AMARE) (Amaranthus retroflexus [1]; 250 g/ha) | [%] damage to weed VI (CHEAL) (Chenopodium album; 250 g/ha) [%] | [%] damage to weed IX (POLCO) (Polygonum convolvulus; 250 g/ha) [%] | [%] damage to weed I (ABUTH) (Abutilon theophrasti [2]; 250 g/ha) | further results
1 | CCSc1c(Cl)cc(F)c(C(=O)Nc2ncnn2C)c1Cl [compound 11] | 100% | 100 | 100 | 100* % | 
2 | CSc1c(F)cc(C(=O)Nc2nnnn2C)c(C)c1SC [compound 67] |  |  |  |  | [%] damage to weed I (ABUTH) (Abutilon theophrasti [3]): 100%; [%] damage to weed VII (ECHCG) (Echinochloa crus-galli [4]; 1000 g/ha): 100%
3 | CCSc1c(Cl)cc(F)c(C(=O)Nc2nnnn2C)c1Cl [compound 12, 2,4-dichloro-3-ethylsulfanyl-6-fluoro-N-(1-methyltetrazol-5-yl)benzamide] | 100% | 100 | 100 | 100* % | 
4 | COCCn1nnnc1NC(=O)c1c(F)cc(Cl)c(S(C)(=O)=O)c1Cl [compound 76] | 100% | 100 |  |  | [%] damage to weed VII (ECHCG) (Echinochloa crus-galli [4]; 250 g/ha): 100; %; [%] damage to weed VII (ECHCG) (Echinochloa crus-galli [5]; 250 g/ha): 100* %
5 | CCOc1c(Cl)cc(F)c(C(=O)Nc2ncnn2C)c1Cl [compound 17] |  |  |  |  | [%] damage to weed III (AMARE) (Amaranthus retroflexus [1]; 500 g/ha): 100%; [%] damage to weed VI (CHEAL) (Chenopodium album; 500 g/ha): 100%; [%] damage to weed VII (ECHCG) (Echinochloa crus-galli [4]; 500 g/ha): 98; %; [%] damage to weed VII (ECHCG) (Echinochloa crus-galli [5]; 500 g/ha): 85* %
6 | Cc1c(C(=O)Nc2ncnn2C)cc(F)cc1S(C)(=O)=O [compound 10] | 100; % | 100 | 100 |  | [%] damage to weed III (AMARE) (Amaranthus retroflexus [6]; 250 g/ha): 95* %
7 | CSc1c(F)cc(Cl)c(C(=O)Nc2ncnn2C)c1F [compound 94] | 100% | 100 |  |  | [%] damage to weed VII (ECHCG) (Echinochloa crus-galli [4]; 250 g/ha): 95%; [%] damage to weed IV (APESV) (Agrostis spica-venti): 90* %
8 | CCCSc1c(Cl)cc(F)c(C(=O)Nc2nnnn2C)c1Cl [compound 21] |  |  |  |  | [%] damage to weed III (AMARE) (Amaranthus retroflexus [1]; 243 g/ha): 100%; [%] damage to weed VI (CHEAL) (Chenopodium album; 243 g/ha): 100%; [%] damage to weed VII (ECHCG) (Echinochloa crus-galli [4]; 243 g/ha): 100%; [%] damage to weed I (ABUTH) (Abutilon theophrasti [2]; 243 g/ha): 100* %
9 | CSc1ccc(Cl)c(C(=O)Nc2ncnn2C)c1Cl [compound 81] | 100% | 100 |  |  | [%] damage to weed VII (ECHCG) (Echinochloa crus-galli [4]; 250 g/ha): 98%; [%] damage to weed IV (APESV) (Agrostis spica-venti): 95* %
10 | COCCOc1c(Cl)cc(F)c(C(=O)Nc2ncnn2C)c1Cl [compound 69] | 98% | 100 | 98 | 100* % | 
11 | CC[S+]([O-])c1c(Cl)cc(F)c(C(=O)Nc2nnnn2C)c1Cl (centres unmarked) [compound 16, 2,4-Dichloro-3-ethylsulfinyl-6-fluoro-N-(1-methyltetrazol-5-yl)benzamide] | 100% | 100 | 100 | 100* % | 
12 | CCOc1c(Cl)cc(F)c(C(=O)Nc2nnnn2CC)c1Cl [compound 63] |  |  |  |  | [%] damage to weed III (AMARE) (Amaranthus retroflexus [1]; 500 g/ha): 100; %; [%] damage to weed VI (CHEAL) (Chenopodium album; 500 g/ha): 100%; [%] damage to weed IX (POLCO) (Polygonum convolvulus; 500 g/ha): 98%; [%] damage to weed III (AMARE) (Amaranthus retroflexus [6]; 500 g/ha): 100* %
13 | CC[S+]([O-])c1c(Cl)cc(F)c(C(=O)Nc2ncnn2C)c1Cl (centres unmarked) [compound 14] | 100% | 100 | 100 | 100* % | 

— patent US20160108008A1, “Substituted N-(Tetrazol-5-yl)- and N-(Triazol-5-yl)arylcarboxamide Compounds and Their Use as Herbicides” (BASF SE, priority 2013, published 2016)
